# Source: patent US20080113063A1, “MICRONUTRIENT SUPPLEMENT” (priority 2006, published 2008)
# Tests used:
# [1] = Soluble copper versus pH on titration of TBCC mother liquor with NH4OH; format: physicochemical; conditions: pH about 5.6, room temperature, ammonium chloride mother liquor
# Procedure: The starting material used for this example was mother liquor remaining after the production of tribasic copper chloride (TBCC) from spent circuit board chemical etchants. The particular sample of mother liquor was slightly acidic, contained several hundred grams per liter of ammonium chloride and about 12 g/L of dissolved copper. The series of tests were conducted at room temperature. A 400 mL sample was titrated with NH4OH solution having a specific gravity of 0.93 and containing about 16% NH3 by weight. The pH and soluble copper concentrations were measured after each increment of NH4OH solution added. The results are illustrated in FIG. 4. Precipitation of copper initiated at a pH of about 4.1 and continued until the pH reached about 5.5. It was apparent that the copper amine chloride salt was forming at least within the pH range of 4.5 to 5.6. As expected from the stoichiometry of Equation 3, about 1 mole of copper was precipitated for every 2 moles of ammonia added. For this particular series of tests, the minimum solubility of copper was about 1,000 mg/L at a pH of about 5.6. As more ammonium hydroxide was added to raise the pH above 5.6, the copper amine chloride salt dissolved to form a navy blue soluble copper tetrammine complex. At a pH above about 7.2 virtually all of the copper ammine chloride salt had dissolved. […]
# [2] = test system: male avian broiler chicks; experiment: Bioavailability of zinc in chicks fed a zinc-free basal corn-soybean diet plus zinc source, 20-day experiment; format: in vivo
# Procedure: An experiment was conducted to compare the bioavailability of zinc from zinc diammine chloride (ZDC or Zn(NH3)2Cl2) with that of reagent grade zinc sulfate heptahydrate (ZSH or ZnSO4.7H2O). A zinc-free basal corn-soybean diet was formulated. The zinc sources were added to the basal diet at doses of 4 mg Zn per kg and 8 mg Zn per kg. The basal and experimental diets were mixed using a horizontal mixer for basal diet and a Hobart mixer for individual treatments. All diets were fed as a mash feed. Eighty male avian broiler chicks were used in the 20-day experiment. The test birds were randomly divided into 20 pens of 4 birds each. The birds were housed in thermostatically controlled, stainless steel battery cages with raised wire flooring in an environmentally controlled facility. Environmental conditions for the birds (i.e., floor space, temperature, lighting, feeder and water space) were similar for all test groups. The chicks were pretested for the first three days after hatching; and then they were switched to the basal diet until the start of the study at day eight. Water that had been deionized and distilled and feed was available for ad libitum consumption.
# All feed added to the pens was recorded. Feed was weighed back at the conclusion of the trial and the feed intake was calculated. The ratio of weight gain to feed consumed was calculated for the period using the average weight gain of birds per treatment divided by the average feed consumption for the treatment throughout the test period.
SMILES,minimum solubility of copper [1],Feed Intake ([2]; Zn 4 mg/kg added to basal diet),Gain:Feed ([2]; Zn 4 mg/kg added to basal diet),Weight Gain ([2]; Zn 4 mg/kg added to basal diet),Feed Intake ([2]; Zn 8 mg/kg added to basal diet),Gain:Feed ([2]; Zn 8 mg/kg added to basal diet),Weight Gain ([2]; Zn 8 mg/kg added to basal diet),improvement of overall weight gain compared to the control ([2]; 4 mg Zn per kg feed),improvement of weight gain per unit of feed compared to the control ([2]; 4 mg Zn per kg feed),improvement of overall weight gain compared to the control ([2]; 8 mg Zn per kg feed),improvement of weight gain per unit of feed compared to the control ([2]; 8 mg Zn per kg feed)
"N.N.[Cl][Cu][Cl] [CDC, copper diammine chloride]","about 1,000 mg/L",,,,,,,,,,
"O.O.O.O.O.O.O.O=S(=O)([O-])[O-].[Zn+2] [ZnSO4•7H2O, zinc sulfate heptahydrate, reference compound]",,201.8 g/chick,497 g/kg,100.5 g/chick,233.5 g/chick,514 g/kg,119.8 g/chick,,,,
"N.N.[Cl][Zn][Cl] [ZDC, zinc diammine chloride]",,189.8 g/chick,523 g/kg,99.3 g/chick,235.3 g/chick,538 g/kg,126.5 g/chick,about 37%,about 24%,~75%,~28%
